Assay results from patent publication US11434490B2, “Fluorogen-binding RNA aptamers” (CENTRE NATIONAL DE LA RECHERCHE SCIENTIFIQUE, priority 2017, dated 2022).

What was measured:
[1] = Fluorescence enhancement of TO1-Biotin; type: biochemical; conditions: ligand TO1-B; 0.82 μM ligand, 2 μM RNA
Experimental: (§1) The bandwidth for all measurements was 1.5 nm for all experiments. Measurements were performed in a 0.2 cm path length cuvette in a background of 20 mM MOPS pH 7.0, 150 mM KCl, 10 μM EDTA. Fluorescence readings were taken in the absence of RNA at a ligand concentration of 0.82 μM. A concentrated, annealed stock of RNA was then added to the cuvette resulting in a final concentration of 2 μM RNA and allowed to equilibrate for 1 minute prior to taking an emission reading. Fluorescence enhancement was determined by dividing the fluorescence signal of ligand in the presence of RNA by the fluorescence signal in the absence of RNA corrected for the background of the instrument.

[2] = Fluorescence lifetime measurements (TCSPC); type: physicochemical; conditions: for α1 (%): amplitude of τ1; for α2 (%): amplitude of τ2; for τi (ns), intensity-weighted average lifetime / τa (ns), amplitude-weighted average lifetime: calculated from the components; for τ1 (ns) / τ2 (ns): free TO1-Biotin or RNA bound to TO1-Biotin
Experimental: Fluorophore lifetime measurements were performed by using an in-house modified 2-photon fluorescence microscope based on a Zeiss LSM 510 unit capable of Time-Correlated Single-Photon Counting (TCSPC) measurements. A diode-pumped solid state laser (Millenia Prime, Spectra Physics, Newport, Calif.) was used to pump a Ti:Sapphire Tsunami oscillator (Model 3960C, Spectra Physics, Newport, Calif.), operating in femtosecond mode, at a repetition rate of 80 MHz, and tunable in the near infrared region. The output beam of the Ti:Sapphire laser was directed into an acousto-opto modulator (MT110/B50/A1.5 IR/S, AA Optoelectronic, France), controlled through the Zeiss LSM electronics and software, to attenuate the power before steering it into the LSM unit. The beam was reflected onto a 700/488 dichroic mirror and directed into the back aperture of a Plan Apochromat 63×, NA 1.4, oil immersion objective, and expanded to fill the back pupil. The fluorescence from the sample was collected from the same objective, intercepted by a 733LP dichroic mirror, sent toward the back port of the microscope, filtered through an ET700SP-2P filter (Chroma Technologies, Bellows Falls, Vt.) to remove residual scattering from the laser, and further passed through a 540/50 nm bandpass filter (Semrock, Rochester, N.Y.). The fluorescence is finally focused onto the photocathode of a H7422P-40 GaAsP photomultiplier detector (Hamamatsu, Japan). The large NA of the objective contributes to a certain degree of depolarization of the incoming excitation beam, as well as of the detected fluorescence. According to Fisz (J. Chem. Phys. A, 2007 and 2009), this would allow one to omit an analyzer (polarizer) in front of our detector, because magic angle conditions are achieved by using a 45° angle detection (i.e. unpolarized) configuration. The signal from the detector and the synchronization signal from the laser are directed into an SPC150 photon counting card (Becker & Hickl, Germany), controlled by the SPCM64 proprietary software from the manufacturer (Becker & Hickl, Germany). The data were collected with a 12.5 ns time window in TCSPC histogramming mode with 1024 channels, with a width of 12.2 ps each.
For the experiments the laser was tuned at 780 nm, and the power adjusted to 18 mW before the objective lens. RNA samples were diluted to a concentration of ˜3-5 μM in buffer. TO-1B was measured at a concentration of 50 μM due to low fluorescence signal of the compound, compared to the RNA-bound version. An 80 μl droplet was deposited onto a #1.5 coverslip, previously treated with BSA to avoid nonspecific binding of RNA to the glass, and covered to avoid evaporation. The excitation was focused ˜5 μm above the upper surface of the coverslip to reduce scatter and to avoid collecting signal from molecules immobilized on the glass surface. The beam was kept stationary by using the LSM controller to simply open the excitation shutter, and data were collected until the maximum count in the peak channel of the TCSPC histogram reached 10^4 photons. Experiments were repeated in triplicate. An instrument response function (IRF) was collected on every day of measurement by recording the second harmonic generation (SHG) signal from crushed urea crystals deposited onto a glass coverslip, in this case the bandpass filter before the detector was substituted with a 440 nm short pass filter to collect the 390 nm SHG. The data collected with the SPCM64 software were stored as *.sdt files for subsequent analysis.
Data were analyzed using the SPCImage software (Becker & Hickl, Germany). The fluorescence decay curves were fit using exponential functions of the form:
Where n is at most equal to 3 in our software. The data fitting routine uses a least-square algorithm where the exponential function is first reconvoluted with the measured IRF and then fit to the data. The shift of the IRF for each dataset, as well as a scatter contribution were included as free parameters during fitting. […]

[3] = Fluorescence enhancement of TO1-OAc; type: biochemical; conditions: ligand TO1-OAc
Experimental: as §1

[4] = Fluorescence titration, binding affinity for TO1-PA; conditions: ligand TO1-PA
Description: (§2) We determined the affinity and fluorescence enhancement of four compounds: TO1-OAc (TO1-acetate), TO1-ME (TO1-methylester), TO1-PA (TO1-propanylamide), TO1-PE (TO1-pentenoylester) (FIG. 42, Table 8 & 9). Binding affinity and fluorescence enhancement of TO1-OAc is drastically diminished, and nearly identical between the wild-type and A22U mutant. […] Further extension of the linker stabilizes the binding pocket by stacking on T3 but becomes sterically hindered by a bulky purine in position 22. The A22U mutation would limit steric clashes while preventing misfolding of the G-quadruplex core. Thus, the improved properties of the Mango-II A22U mutant may arise from improved packing of the linker of the fluorophore with an RNA with a homogeneous or predominant conformation.
(§3) Fluorescence readings were recorded using a Varian Cary Eclipse Spectrophotometer set to measure at the maximum excitation and emission wavelengths of the Mango II aptamer dye complex. Fluorescence titrations were performed in Mango selection buffer (WB: 140 mM KCl, 1 mM MgCl2, 10 mM NaH2PO4 pH 7.2, 0.05% Tween-20).

[5] = Fluorescence titration, binding affinity for TO1-PE; conditions: ligand TO1-PE
Description: as §2, §3

[6] = Fluorescence enhancement of TO1-PE; type: biochemical; conditions: ligand TO1-PE
Experimental: as §1

Molecule	FIE (fluorescence enhancement) [1]	α1 (%) [2] [%]	α2 (%) [2] [%]	τi (ns), intensity-weighted average lifetime [2] [ns]	τa (ns), amplitude-weighted average lifetime ([2]; listed as Mango II wt) [ns]	τa (ns), amplitude-weighted average lifetime ([2]; listed as wild-type Mango-II)	τ1 (ns) ([2]; listed as Mango II wt)	τ2 (ns) ([2]; listed as Mango II wt)	τ1 (ns) ([2]; listed as wild-type Mango-II)	τ2 (ns) ([2]; listed as wild-type Mango-II)	FIE (fluorescence enhancement) [3]	Kd [4] [nM]	Kd [5] [nM]	FIE (fluorescence enhancement) [6]	τa (ns), amplitude-weighted average lifetime [2] [ns]	τa (ns), amplitude-weighted average lifetime ([2]; listed as A22U mutant)	τ1 (ns) [2] [ns]	τ2 (ns) [2] [ns]	τ1 (ns) ([2]; listed as A22U mutant)	τ2 (ns) ([2]; listed as A22U mutant)
Mango-II: minimal construct engineered from isolate R2-1; SEQ ID NO: 6902 GCGUACGAAGGAGAGGAGAGGAAGAGGAGAGUACGC (chemistry not given here)	1303 ± 20	45	55	2.05	1.51	1.51 (±0.06) ns	0.52	2.33	0.52 (±0.02) ns	2.33 (±0.12) ns	258 ± 10	1.04 ± 0.57	0.37 ± 0.06	783 ± 13						
Mango II - A22U: Mango-II point mutant; SEQ ID NO: 6903 / 6905 (nucleic acid, chemistry not given here) chain 1: GCGUACGAAGGAGAGGAGAGGUAGAGGAGAGUACGC chain 2: GGCACGUACGAAGGAGAGGAGAGGUAGAGGAGAGUACGUGC	1543 ± 24	45	55	2.53							315 ± 4	2.21 ± 1.09	1 ± 0.13	825 ± 14	1.92	1.92 (±0.03) ns	0.72	2.904	0.72 (±0.01) ns	2.904 (±0.001) ns
